Measured values: patent US6185453A, “Iontophoretic delivery of integrin inhibitors” (DuPont Pharmaceuticals Company, priority 1997, dated 2001)
Several values for one entry are separate records, joined by “and”; a condition that tells them apart may be missing. Equal entries are not always repeated. Structures can show the parent of a compound that is named as a salt.

Key:
[1] = In vitro excised porcine skin iontophoretic delivery (flow-through diffusion cell); format: in vitro ADME; details: for Dose Delivered: 18 hours iontophoresis, 2 cm^2 patch
Description: The iontophoretic delivery of a representative GPIIb/IIIa inhibitor compound, Compound A, was carried out in a flow-through diffusion cell in vitro excised skin delivery system. The transdermal patch design used in these studies included an absorbent drug reservoir with 2 cm^2 active area of skin contact and a volume of 0.3 mL. The drug reservoir compartment was separated from the electrode compartment by a semi-permeable membrane with a molecular weight cutoff of 100. The electrode compartment included a silver […] and a cation exchange media in a hydrogel matrix. The drug reservoir compartment was filled with dosing solution just before application to the skin. A silver-silver chloride mesh return cathode was located upstream of the polycarbonate flow-through cells. Freshly dermatomed (1 mm) porcine skin was mounted in the cells on a porous support polyethylene. The patches included an absorbent reservoir in contact with silver and silver chloride electrodes. They were dosed with aqueous solutions of the drug and then placed on top of the excised skin. The patches were secured by a spring loaded mechanism which maintained even pressure over the patch. The cells were "perfused" by means of a peristaltic pump which pulls receiver solution through them. Effluents from the cells were collected with a fraction collector. Flow rates were typically 0.25 mL/min. The receiver solution was an isotonic pH 7.4 buffered saline solution containing 10 mM HEPES, 100 mM NaCl, PEG 400, and a surfactant, Pluronic P-103. Iontophoresis current was provided by a constant current power supplies, and the applied currents and cell voltages were recorded with a data logger. The flux profile vs. time and the cumulative dose delivered with 18 hours of iontophoresis were determined. This was followed by 3 hours where no current was applied. Concentrations of Compound A were determined using a radiolabeled marker or by HPLC. A study was performed using applied currents of 0-800 μA, and concentrations of Compound A in the patch of 50 or 100 mg/mL. Additional studies were performed using lower applied currents, lower concentrations of Compound A in the patch, and dosing solutions containing various concentrations of NaCl. […] At 100 μA the delivery rate of Compound A was approximately 10 μg/hr for the 2 cm^2 surface area, which was also within the targeted range. An alternative patch design, a monolithic patch rather than the membrane separated patch, was also tested. This patch is composed of two layers of absorbent material between which is sandwiched a silver anode.

[2] = In vivo swine iontophoretic delivery / IV infusion, plasma concentrations (LC-MS); parameters: species or system Yorkshire swine; details: for in vivo delivery rate: 10 mg/mL, by comparison with IV infusion of Compound B
Excerpt: In each experiment, the patches were loaded with drug solution immediately before application to the skin of the animals. Unanesthetized Yorkshire swine with weights from about 20 to 35 kg were used. The skin sites receiving the patches were wiped clean with moist gauze pads. Patches were overwrapped with an adhesive, elastic wrap to hold the patches in place. Separate constant current power supplies were provided for each iontophoresis patch system. Current and voltage readings were made and recorded on-board dataloggers. Blood samples were withdrawn from the vena cava through an IV catheter into VACUTAINER™ blood collection tubes containing EDTA. After gentle mixing, the tubes were centrifuged to separate the plasma, which transferred to clean polypropylene tubes and frozen on dry ice. Frozen samples were stored at -80° C. until assayed.
Compound B concentrations in plasma were determined by LC-MS. The patches used were of the monolithic design described above, and having a 2 cm^2 skin coverage area. Patches were filled with solutions containing 10-20 mg/mL Compound A and 154 mM NaCl. […], plasma concentrations of Compound B increased for the first 5-8 hours of dosing and then reached steady-state.Steady-state plasma concentrations of approximately 1-2 ng/mL were attained. After an intravenous infusion of Compound B at 10 μg/hr, steady-state plasma concentrations of Compound B were also approximately 1-2 ng/mL. Therefore, the transdermal delivery rate at steady-state was approximately 10 μg/hr.
Pigs were also dosed with patches containing 10 mg/mL of Compound A, using currents of 50 and 100 μA. In these studies four patches were used for each pig, for a total skin coverage area of 8 cm^2. […] Actual in vivo delivery rates were estimated by comparison with plasma concentrations after intravenous infusion of Compound B. The 50 μA current delivered Compound A at approximately 25 μg/hr, and the 100 μA current delivered Compound A at approximately 40 μg/hr.

[3] = iontophoresis of 10 mg/mL Compound A, 50 and 100 μA, four patches (8 cm^2)

CCCCOC(=O)N[C@@H](CNC(=O)C[C@H]1CC(c2ccc(C(=N)N)cc2)=NO1)C(=O)OC [Compound A, methyl-N^3-[2-{3-(4-formamidinophenyl)-isoxazolin-5(R)-yl}-acetyl]-N^2-(n-butyloxycarbonyl)-2,3-(S)-diaminopropionate methanesulfonate salt]
skin permeation [1]: very low skin permeation
Dose Delivered ([1]; 0 μA, 100 mg/mL Compound A (as salt), methanesulfonate salt): 0.2 mg and 0.1 mg
transdermal delivery rates versus applied current ([1]; 10 mg/mL Compound A, 154 mM NaCl, 0, 25, 50, and 100 μA): proportional to the applied current
time to maximum delivery ([1]; 50 or 100 mg/mL Compound A, iontophoresis): about 5 hours
delivery rate ([1]; 100 μA, 10 mg/mL Compound A, 154 mM NaCl, 2 cm^2): approximately 10 μg/hr
Dose Delivered ([1]; 200 μA, 100 mg/mL Compound A (as salt), methanesulfonate salt): 1.2 mg and 1.1 mg and 1.0 mg
Dose Delivered ([1]; 400 μA, 50 mg/mL Compound A (as salt)): 1.1 mg
Dose Delivered ([1]; 800 μA, 50 mg/mL Compound A (as salt), methanesulfonate salt): 2.1 mg and 2.3 mg
variability in delivery from skin to skin ([1]; FIG. 2, 10 mg/mL, 154 mM NaCl, 50 μA): extremely low
in vitro delivery versus current ([1]; FIG. 3, 10 mg/mL, 9 mg/mL NaCl, 0-100 μA): proportional to increase in current
consistency of delivery ([1]; for any specified drug concentration and applied current): generally very consistent
transdermal delivery ([1]; in the presence of the applied current): greatly increased
delivery rates ([1]; when the current was turned off): very low levels
dosing rates ([1]; within the target range, 50 or 100 mg/mL Compound A): 5 to 250 µg/h
transdermal delivery rate at steady-state ([2]; 20 mg/mL Compound A, 100 μA, 2 cm^2, by comparison with IV infusion): approximately 10 μg/hr
blood levels, iontophoresis (FIG. 5) compared with constant IV infusion of Compound B (FIG. 4) ([2]; 20 mg/mL, 154 mM NaCl, 200 μA, 2 cm^2 vs IV 10 μg/h): similar
in vivo delivery rate ([2]; 50 μA, four patches (8 cm^2)): approximately 25 μg/hr
in vivo delivery rate ([2]; 100 μA, four patches (8 cm^2)): approximately 40 μg/hr
variability in plasma levels with iontophoresis ([2]; FIG. 5, 20 mg/mL, 154 mM NaCl, 200 μA, 2 cm^2): extremely low
in vivo conversion to acid form (Compound B) ([2]; in vivo): rapidly converted to its acid form

CCCCOC(=O)N[C@@H](CNC(=O)C[C@H]1CC(c2ccc(C(=N)N)cc2)=NO1)C(=O)O [Compound B, N^3-[2-{3-(4-formamidinophenyl)-isoxazolin-5(R)-yl}-acetyl]-N^2-(n-butyloxycarbonyl)-2,3-(S)-diaminopropanoic acid]
steady-state plasma concentrations ([2]; approximately, intravenous infusion of Compound B at 10 μg/hr): 1 to 2 ng/mL
period of plasma concentration increase before apparent steady-state [2, 3]: first several hours
plasma concentrations during 24 hours of iontophoretic dosing [2, 3]: fairly constant
plasma concentrations versus applied current [2, 3]: proportional to the applied current
time during which plasma concentrations increased before steady-state ([2]; iontophoresis of 20 mg/mL Compound A, 100 μA, 2 cm^2): 5 to 8 h
